Experimental data reported in patent publication US11666580B2, “Mechanism of resistance to bet bromodomain inhibitors” (Dana-Farber Cancer Institute, Inc., priority 2015, dated 2023).

Tests used:
[1] = system: SUM159 cells; test: Apoptosis (sub-G1 fraction and Annexin-V staining); assay type: cell-based, human; details: prolonged exposure 48-72 hours, JQ1 500 nM
Protocol: Cell viability and growth assays (FIGS. 1A-1B, FIGS. 3A-3E, 3G, FIGS. 5D-5F, FIGS. 6C, 6E, 6I, FIG. 7A, FIG. 10D, FIGS. 14A-14C), cycle, apoptosis, and MDR assays were performed in triplicates and repeated 2-3 times. For cell proliferation assays, cells were plated at 500 cells per well in 96-well plates and treated the next day with inhibitors, DMSO or doxycycline (500 ng). Cells were cultured at 37° C. with 5% CO2 in the media described-above, and cell viability was measured using CellTiter-Glo three days after treatments. For cell growth assays, cells were plated at 5000 (SUM159) or 20000 (SUM149) cells per well in 6-well plates and treated the next day with inhibitors. Cells were counted every three days by cell counter. Cellular apoptosis was analyzed with an APC AnnexinV/7ADD Apoptosis Detection kit (BD Pharmingen). AnnexinV/7AAD assessments and cell cycle graphics were generated using FlowJo software V7.6.1 for Windows (Tree Star). Senescence Beta-gal staining was performed using Senescence β-Galactosidase staining kit from Cell signaling. Briefly, after JQ1 treatment (500 nM) for 72 h, SUM159 and MDA-MB-231 cells were fixed by Fixative Solution for 15 min, followed by β-Galactosidase solution incubation overnight at 37° C. The staining was checked under microscope for the development of blue color. […] The cells were analyzed by fluorescent microscope and FACS. […]

[2] = system: tumors derived from SUM159; test: Xenograft assay, SUM159; assay type: in vivo, mice; details: two weeks of JQ1, 50 mg/kg daily
Protocol: (§1) For xenograft assays 5-6-weeks old female CrTac:NCr-Foxn1^nu and NOD.Cg-Prkdc^scid Il2rg^tm1Sug/JicTac mice were purchased from Taconic. Tumors were induced by bilateral orthotopic mammary fat pad injection of 1×10^6 cells in 50% Matrigel (BD Biosciences) in DMEM/F12 or Medium 171 (except for IDC50-X cells, which were injected with 3% FBS and 4 mg/ml collagen gel in Medium 171). Animal experiments were conducted following protocol 11-023 approved by the Dana-Farber Cancer Institute Animal Care and Use Committee.

[3] = system: tumors derived from MDA-MB-231; test: Xenograft assay, MDA-MB-231; assay type: in vivo, mice; details: two weeks of JQ1, 50 mg/kg daily
Protocol: as §1

[4] = system: patient-derived primary human TNBC xenografts; test: Xenograft assay, patient-derived TNBC; assay type: in vivo, mice; details: two weeks of JQ1, 50 mg/kg daily
Protocol: as §1

[5] = system: SUM149 cells; test: Cell growth assay (viable cell numbers); assay type: cell-based, human; details: low (0.5 μM) and high (2.0 μM) doses, 6 days
Protocol: (§2) Cell viability and growth assays (FIGS. 1A-1B, FIGS. 3A-3E, 3G, FIGS. 5D-5F, FIGS. 6C, 6E, 6I, FIG. 7A, FIG. 10D, FIGS. 14A-14C), cycle, apoptosis, and MDR assays were performed in triplicates and repeated 2-3 times. For cell proliferation assays, cells were plated at 500 cells per well in 96-well plates and treated the next day with inhibitors, DMSO or doxycycline (500 ng). Cells were cultured at 37° C. with 5% CO2 in the media described-above, and cell viability was measured using CellTiter-Glo three days after treatments. For cell growth assays, cells were plated at 5000 (SUM159) or 20000 (SUM149) cells per well in 6-well plates and treated the next day with inhibitors. Cells were counted every three days by cell counter. Cellular apoptosis was analyzed with an APC AnnexinV/7ADD Apoptosis Detection kit (BD Pharmingen). AnnexinV/7AAD assessments and cell cycle graphics were generated using FlowJo software V7.6.1 for Windows (Tree Star). Senescence Beta-gal staining was performed using Senescence β-Galactosidase staining kit from Cell signaling. Briefly, after JQ1 treatment (500 nM) for 72 h, SUM159 and MDA-MB-231 cells were fixed by Fixative Solution for 15 min, followed by β-Galactosidase solution incubation overnight at 37° C. The staining was checked under microscope for the development of blue color. […] Briefly, SUM159 and SUM159R cells were treated with JQ1 or DMSO for 30 min in SUM medium. Verapamil was used as a positive control at 1:1000 dilution.

[6] = system: SUM149R cells; test: Cell growth assay (viable cell numbers); assay type: cell-based, human; details: high concentrations (up to 20 μM) of JQ1
Protocol: as §2

[7] = system: SUM159 cells; test: Cell growth assay (viable cell numbers); assay type: cell-based, human; details: low (0.5 μM) and high (2.0 μM) doses, 6 days
Protocol: as §2

[8] = system: SUM159R cells; test: Cell growth assay (viable cell numbers); assay type: cell-based, human; details: high concentrations (up to 20 μM) of JQ1
Protocol: as §2

[9] = system: xenografts derived from SUM159R cells; test: Xenograft assay, SUM159R (BBI-resistant SUM159); assay type: in vivo, mice; details: JQ1 for 30 days
Protocol: as §1

[10] = target: chromatin-bound BRD4 in SUM159 cells (Homo sapiens, UniProt O60885)
Protocol: Chem-seq was performed essentially as described^27. ChIP-seq: SUM159 and SUM159R cells (4×10^7) were grown in SUM Medium. The media were then removed and replaced with media containing 1% formaldehyde (EM grade; tebu-bio) and crosslinked for 8 min. Crosslinking was quenched by adding glycine to a final concentration of 0.2 M. The cells were washed with ice-cold PBS, harvested in PBS, and the cell pellet was washed with PBS. The nuclear fraction was extracted by first resuspending the pellet in 10 ml of LB1 buffer (50 mM HEPES-KOH [pH 7.5], 140 mM NaCl, 1mMEDTA, 10% glycerol, 0.5% NP-40 or Igepal CA-630, and 0.25% Triton X-100) for 10 min at 4° C. Cells were pelleted, resuspended in 10 ml of LB2 buffer (10 mM Tris-HCL [pH 8.0], 200 mM NaCl, 1 mM EDTA, and 0.5 mM EGTA), and mixed for 5 min. Cells were pelleted and resuspended in 300 μl of LB3 buffer (10 mM Tris-HCl [pH 8], 100 mM NaCl, 1 mM EDTA, 0.5 mM EGTA, 0.1% Na-deoxycholate, and 0.5% N-lauroylsarcosine) and sonicated in a covaris sonicator for 10 min. A total of 30 μl of 10% Triton X-100 was added, and lysate was centrifuged for 10 min at 20,000 rcf to purify the debris. The supernatant was then incubated with 100 μl of magnetic beads (Life Technologies) prebound with 20 μg BRD4 antibody (Bethyl, A301-985A), and immunoprecipitation (IP) was conducted overnight in the cold room. The beads were washed ten times in 1 ml of RIPA buffer and twice in 100 mM ammonium hydrogen carbonate (AMBIC) solution. DNA was eluted in elution buffer (50 mM Tris-HCl pH 8, 10 mM EDTA, and 1% SDS). Cross-links were reversed overnight at 65° C. RNA and protein were digested with 0.2 mg/mL RNase A for 2 hr followed by 0.2 mg/mL Proteinase K for 1 hr. DNA was purified with phenol chloroform extraction and ethanol precipitation. Libraries for Illumina sequencing were prepared following the Rubicon ThruPLEX-FD kit for 10-12 cycles.

[11] = target: BRD4-MED1 association in SUM159 cells (Homo sapiens, UniProt O60885); details: sensitive cells
Protocol: Cells were lysed five days after transfection with siRNAs in RIPA buffer. Proteins were resolved in SDS-polyacrylamide gels (4%-12%) and transferred to PVDF membranes by using a Tris-glycine buffer system. Membranes were blocked with 5% milk powder in 0.1% Tween20 in PBS (PBS-T) for 1 hr at room temperature followed by incubation with primary antibodies at 1:1000 dilution in 2.5% milk PBS-T. For immunoprecipitation, nuclear extracts were prepared as follow: 10×10^6 cells were resuspended in 5 ml Buffer A: 10 mM Tris pH 7.9, 1.5 mM MgCl2, 10 mM KCl, 0.05% NP-40, 1 mM DTT, and protease and phosphatase inhibitors. Cells were incubated on ice for 15 min and gently vortexed every 5 min. After centrifugation at 2,000 g for 5 min, pellets were suspended in 0.3 ml buffer B (20 mM Tris pH 7.9, 25% glycerol, 0.42 M NaCl, 1.5 mM MgCl2, 1 mM KCl, 0.5% NP40, 0.2 mM EDTA, 1 mM DTT, and protease and phosphatase inhibitors) and incubated for 5 min on ice. After centrifugation of the lysates at 14 g for 10 min at 4° C., supernatant was diluted with 0.6 ml buffer A, and added NP-40 to final 0.5% and treated with DNase I. The samples were then incubated at 4° C. overnight with BRD4 or Flag antibodies at 1:100 dilution and immunoprecipitates were collected on Dynabeads Protein G for 2 hr. […]

Cc1sc2c(c1C)C(c1ccc(Cl)cc1)=N[C@@H](CC(=O)OC(C)(C)C)c1nnc(C)n1-2 [JQ1]
Apoptotic response (sub-G1 fraction, Annexin-V staining) [1]: elicited an apoptotic response | Tumor growth [2]: efficiently inhibited the growth of established tumors | Tumor growth [3]: efficiently inhibited the growth of established tumors | Tumor growth [4]: efficiently inhibited the growth of established tumors | Proliferation [5]: severely impaired | Proliferation [6]: continue to proliferate linearly over time | Proliferation [7]: severely impaired | Proliferation [8]: continue to proliferate linearly over time | Tumor response to JQ1 treatment [9]: not responsive | BRD4 occupancy at Chem-seq-defined SE regions ([10]; SUM159R, JQ1 exposure): retain chromatin-bound BRD4 | Displacement of BRD4 from chromatin ([10]; SUM159R, following JQ1 treatment): not displaced from chromatin | Effect on H3K27ac or global transcription ([10]; resistant cells): fails to influence | Association of BRD4 with MED1 [11]: efficiently displaced BRD4 from MED1
